pIC50: −log10 of the molar value.
Columns and labels:
Format in all cases: cell-based
[1] = test system: SK‐N‐BE(2)C neuroblastoma cell line; assay: SK-N-BE(2)C cell viability assay (CellTiter-Blue); details: SK-N-BE(2)C cells; for effect on cell viability: up to 100 μM
Protocol: Cell viability assay: SK‐N‐BE(2)C cells were cultured in Dulbecco's modified Eagle medium (DMEM, Lonza, Basel, Switzerland) supplemented with 10 % fetal calf serum (FCS, Sigma‐Aldrich) and 1 % non‐essential amino acids (NEAA, Lonza). SK‐N‐BE(2)C cells were seeded from a confluent flask into 96‐well plates in 100 μL full growth medium at a density of 5×10^3 cells per well the day before treatment. Cells were treated in triplicates with drug concentrations as indicated in the respective figure. Drugs were dosed from 50 mM and 200 mM stock solutions with a D300e Digital Dispenser (Tecan) and DMSO concentrations were normalized to 0.2 % for all wells. Plates were shaken (1000 rpm orbital shaker, 30 s) and incubated under standard culture conditions for 72 h. To each well 20 μL of CellTiter‐Blue® reagent (G8081, Promega) was added, plates were shaken (600 rpm orbital shaker, 20 s) and incubated at 37 °C overnight. Fluorescence was measured (extinction/emission: 570 nm/590 nm) on a FluoStar Optima (BMG Labtech) plate reader. Cell viability was normalized with untreated positive controls and cell‐free negative controls. IC50‐values were calculated as described in the BRET assay.

[2] = biological target: T1, HDAC10 (Homo sapiens, UniProt Q969S8); assay: cellular BRET HDAC10 target engagement assay (stably transfected HeLa cells); parameters: host or cells: HeLa (stably transfected mono-clones); details: for IC50: read-out: HDAC10 BRET pIC50 (converted)
T1 sequence (Q969S8 1-669): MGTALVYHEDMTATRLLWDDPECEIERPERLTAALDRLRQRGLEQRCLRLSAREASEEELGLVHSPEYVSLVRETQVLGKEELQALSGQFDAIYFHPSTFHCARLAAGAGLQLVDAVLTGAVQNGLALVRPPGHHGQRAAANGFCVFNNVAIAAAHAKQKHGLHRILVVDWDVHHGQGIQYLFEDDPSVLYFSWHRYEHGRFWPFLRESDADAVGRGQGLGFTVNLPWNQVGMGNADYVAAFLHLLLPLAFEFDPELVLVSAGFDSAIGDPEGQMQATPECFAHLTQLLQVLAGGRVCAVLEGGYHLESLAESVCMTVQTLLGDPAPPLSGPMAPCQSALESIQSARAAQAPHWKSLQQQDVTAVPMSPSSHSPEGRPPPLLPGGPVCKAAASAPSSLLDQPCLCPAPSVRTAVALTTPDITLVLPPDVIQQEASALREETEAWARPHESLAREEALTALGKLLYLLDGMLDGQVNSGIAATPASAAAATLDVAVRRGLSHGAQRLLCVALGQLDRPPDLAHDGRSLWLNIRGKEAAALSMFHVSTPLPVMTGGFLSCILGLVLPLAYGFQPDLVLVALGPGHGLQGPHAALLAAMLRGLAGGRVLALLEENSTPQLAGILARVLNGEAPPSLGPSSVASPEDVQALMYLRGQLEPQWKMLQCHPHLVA
Protocol: Production of mono‐clones stably expressing HDAC‐nanoBRET proteins: Plasmids expressing a fusion of HDAC10 with nanoluciferase were obtained from Promega (N2170). HeLa cells (0.75×10^6) were seeded in a 6 cm dish and after 24 h were transfected with a mix of 10 μg plasmid and 3 μL Fugene in 200 μL OptiMEM. In detail, cells were washed with pre‐warmed OptiMEM and subsequently overlaid with 2.3 mL of OptiMEM. After addition of 200 μL transfection mix, cells were incubated for 24 h at 37 °C. Cells were than trypsinized and 0.2×10^5 cells were seeded into both 10 cm and 15 cm dishes. Transformants were selected with 1 mg/mL G‐418 for 6 days with a media change after 3 days. Clones which formed colonies were picked by rinsing plates with 3 mL Trypsin/EDTA (Sigma T3924) followed by a 2 min incubation with 300 μL Trypsin/EDTA at 37 °C. Colonies were then loosened and aspirated with a 10 μL filter tip and transferred to 24‐well plates containing selection medium.
Culture of stable BRET cell lines: Stably transfected HeLa cells were cultivated under sterile conditions in polystyrene cell culture flasks (658170, Greiner) at 37 °C and 5 % CO2 in a humidified atmosphere. DMEM growth medium (D6049, Sigma) was supplemented with 10 % FCS (FBS‐12A, Capricorn Scientific), 1 % penicillin‐streptomycin (P4333, Sigma) and 1 mg/mL Geneticin (2039.3, Roth). At confluency, cells were passaged by removing old medium, DPBS (14190‐094, gibco) wash, trypsination (T4049, Sigma) and seeding in fresh growth medium.
BRET assay: The intracellular target engagement assay on HDAC10 was performed as described by the kit manufacturer in a 96‐well plate (3600, Corning) format with 1.9×10^4 cells per well and a tracer concentration of 0.3 μM. […] Drug dosing was performed from 10 mM and 1 mM DMSO stock solutions with a D300e Digital Dispenser (Tecan), DMSO concentrations were normalized to 0.5 % for all wells. Assay plates were incubated at 37 °C for 2 h followed by measurement of 450 nm and 650 nm luminescence (80 nm bandwidth) at room temperature with a CLARIOstar (BMG Labtech) plate reader 2 min after NanoLuc substrate addition.

[3] = test system: lysosomal staining with LysoTracker DND‐99 (HDAC10 knockdown phenotype); assay: LysoTracker assay in SK-N-BE(2)C cells; details: 10 μM inhibitor, normalized to DMSO
Protocol: LysoTracker assay: SK‐N‐BE(2)‐C cells were seeded into 6‐well dishes at a density of 1.5×10^5 cells per well. Cells were treated with inhibitor over night at concentrations indicated in the figure and stained the following day for 1 h with 50 nM LysoTracker® Red DND‐99 in medium under standard cell culture conditions. Cells were washed with ice‐cold RPMI without phenol‐red and trypsinized for 3 min at 37 °C. Detached cells were centrifuged for 3 min at 8600 g and re‐suspended in ice‐cold RPMI without phenol red. Mean LysoTracker fluorescence was quantified on a BD FACSCanto II platform using the PE filter setting. Data were normalized to mean LysoTracker fluorescence of solvent (DMSO) treated cells.

[4] = test system: acetylation of the HDAC8 substrate SMC3; assay: Western blot of SMC3 acetylation in SK-N-BE(2)C cells; details: relative to solvent control
Protocol: Western blot analysis of SMC3, tubulin and histone H3 acetylation: For the analysis of protein acetylation, 1.5–2×10^6 SK‐N‐BE(2)‐C cells were seeded per 10 cm dish and allowed to adhere overnight. Cells were treated for 18 h (Figure 4B) or 6 h (Figure 4E) with inhibitors at concentrations indicated in the respective figure. […] Cell debris was removed by centrifugation (15 000 g for 10 min at 12 °C).

[5] = cellular target engagement, one experiment in triplicate

CN(C)Cc1nn(Cc2ccc(C(=O)NO)cc2)c2cc(C(=O)NO)ccc12 [Compound 3g]
effect on cell viability [1]: little effect | IC50 [2, 5]: 158 nM | lysosomal staining with LysoTracker DND-99 (HDAC10 knockdown phenotype) [3]: failed to produce an HDAC10 knockdown phenotype | acetylation of SMC3 (HDAC8 substrate), Western blot [4]: no effect

CN(C)Cc1nn(Cc2ccc(C(=O)NO)cc2)c2ccccc12 [Compound 1g]
HDAC10 BRET pIC50 [2, 5]: 7.80 | lysosomal staining with LysoTracker DND-99 (HDAC10 knockdown phenotype) [3]: effective

O=C(NO)c1ccc(Cc2c[nH]c3ccc(C(=O)NO)cc23)cc1 [Compound 3d]
pIC50 ([1]; 72 h): 5.15 | loss of potency between the FRET and BRET HDAC10 assays ([2]; BRET weaker than FRET): ~5 fold | IC50 [2, 5]: 15.1 nM | lysosomal staining with LysoTracker DND-99 (HDAC10 knockdown phenotype) [3]: induces lysosomal acidification similar to Tubastatin A | acetylation of SMC3 (HDAC8 substrate), Western blot [4]: increases acetylation

CN(C)CCn1cc(Cc2ccc(C(=O)NO)cc2)c2cc(C(=O)NO)ccc21 [Compound 3e]
effect on cell viability [1]: little effect | lysosomal staining with LysoTracker DND-99 (HDAC10 knockdown phenotype) [3]: failed to produce an HDAC10 knockdown phenotype
